Measured values as given in patent publication EP0071892A2, “Phospholipid derivatives, process for preparation thereof and pharmaceutical composition of the same” (priority 1981, dated 1983).
Read-outs that look alike come from different tables or passages of the source.

Experiments:
[1] = test system: Fibrosarcoma Meth A; assay: Test Method A: intradermally inoculated Meth A tumor in mice, intratumoral injection of test compound, tumor growth inhibition; type: in vivo, BALB/c mice; conditions: 100 µg/mouse intratumorally once daily from Day 1 to Day 4 postimplant; for Mean of two diameters of the growing tumor: 1 x 10^5 Meth A cells intradermally; for responders at 0.1 mg / inhibition in vivo at 0.1 mg: Meth-A; for responders at 0.1 mg: read-out: Ratio of tumor free mice [Number of tumor free mice/ Number of mice used as a group] (converted); for inhibition in vivo at 0.1 mg: Mus musculus, read-out: Tumor growth inhibition (%) [(1-T/c)x100]
Procedure: Groups of six female BALB/c mice, aged 12 weeks and weighing 19 - 21 g were used.
Fib,rosarcoma Meth A (hereinafter referred to as Meth A) was successively transferred every 7 days into BALB/c mice by intraperitoneal inoculation of the ascites cells thereof and the Meth A in the ascites cells as harvested 6 days after the inoculation was used as tumor cells.
Each of the BALB/c mice was inoculated intradermally with 1 x 10^5 Meth A cells in 0.05 ml Hanks solution.
Test compound was dissolved in 0.5% methylcellulose saline solution, and was intratumorally injected to each of the mice in doses of 100 µg/mouse once daily from Day 1 to Day 4 postimplant.
The control group was given with a vehicle alone in the same way.
The antitumor effectiveness of the test compound was estimated by tumor growth inhibition (1-T/C). • T: Mean diameter of the growing tumor of the medicated group • C: Mean diameter of the growing tumor of the control group

[2] = test system: Fibrosarcoma Meth A; assay: Test Method B: intrapleurally inoculated Meth A tumor in mice, injection into pleural cavity, mean survival time; type: in vivo, BALB/c mice; design: dose or concentration left out as unconfirmed; conditions: for Anti-tumor activity (%) *d: comparison of mean survival time of medicated group (T) and control group (C), into pleural cavity three times; for Mean survival time: into pleural cavity three times (before 14 days, after 1 hour and after 3 days of tumor implantation), 5 x 10^5 Meth A cells intrapleurally
Procedure: Groups of eight female BALB/c mice, aged 8-9 weeks and weighing 18.0-22.5 g were used.
Fibrosarcoma Meth A (hereinafter referred to as Meth A) was successively transferred every 7 days into BALB/c mice by intraperitoneal inoculation of the ascites cells thereof and the Meth A in the ascites cells as harvested 6 or 7 days after the inoculation was used as tumor cells.
Each of the BALB/c mice was inoculated intrapleurally with 5 x 10^5 Meth A cells in 0.1 ml Hanks solution.
Test compound was dissolved in phosphate buffer saline solution, and was injected into pleural cavity to each of the mice in doses of 100 pg/0.05 ml/mouse three times, i.e. before 14 days, after 1 hour and after 3 days of tumor implantation.
The antitumor activity of the test compound was estimated by comparing mean survival time of the two groups. • T : Mean survival time of the medicated group • C : Mean survival time of the control group

Compound | Mean of two diameters of the growing tumor ([1]; Day 14) [mm] | Ratio of tumor free mice [Number of tumor free mice/ Number of mice used as a group] ([1]; Day 21) | Mean of two diameters of the growing tumor ([1]; Day 21) [mm] | responders at 0.1 mg ([1]; Day 14) [%] | inhibition in vivo at 0.1 mg ([1]; Day 14) [%] | inhibition in vivo at 0.1 mg ([1]; Day 21) [%] | Anti-tumor activity (%) *d [2] [%] | Mean survival time [2] [days]
CCCCCCCCCCCCCCCCCCOCC(COP(=O)(O)OCCN1CCN(C)CC1)OCC (racemic) [3-(1), (rac)-l-O-Octadecyl-2-0-ethyl-glycerol-3-[2-(4-methyl-l-piperazinyl)ethyl]phosphate] | 0 | 6/6 | 0 | 100 | 100 | 100 | 342 | 20.5
CCCCCCCCCCCCCCCCCCOCC(COP(=O)([O-])OCC[n+]1ccccc1)NC(=O)OCC (racemic) [10-(6), (rac)-1-0-Octadecyl-2-ethoxycarbonylamino-1,3-propanediol-3-[2-(1-pyridinio)ethyl]phosphate] |  |  |  |  |  |  | <400 | 24.0
CCCCCCCCCCCCCCCCCCOCC(COP(=O)([O-])OCC[n+]1ccccc1)NC(=O)NC (racemic) [11-(2), (rac)-1-0-Octadecyl-2-(N'-methylureido)-1,3-propanediol-3-[2-(l-pyridinio)ethyl]phosphate] |  |  |  |  |  |  | 350 | 21.0
CCCCCCCCCCCCCCCCCCOCC(COP(=O)([O-])OCC[N+](C)(C)C)OC (racemic) [*e, reference compound] |  |  |  |  |  |  | 242 | 14.5
CCCCCCCCCCCCCCCCCCOCC(COP(=O)([O-])OCC[n+]1ccccc1)OC (racemic) [Example 1, (rac)-l-O-octadecyl-2-0-methyl-glycerol-3-[2-(1-pyridinio)ethyl]phosphate] | 0 | 6/6 | 0 | 100 | 100 | 100 | 367 | 22.0
CCCCCCCCCCCCCCCCCCOCCCOP(=O)([O-])OCC[n+]1ccccc1 [3-(29), (rac)-1-0-Octadecyl-1,3-propanediol-3-[2-(1-pyridinio)-ethyl]phosphate] |  |  |  |  |  |  | 264 | 18.5
(rac)-1-O-Octadecyl-2-0-methyl-glycerol-3-[2-(N-methyl-4-morpholino)ethyl]phosphate [3-(15)] |  |  |  |  |  |  | 433 | 26.0
